Literature values, collected in patent publication US10471038B2, “Inhibitor of muscle damage or muscle fatigue” ([…] LABORATORY, CO., LTD., priority 2015, dated 2019).

System: calpain
Conditions: mdx mice, intramuscular injection

CC(=O)N[C@@H](CC(C)C)C(=O)N[C@@H](CC(C)C)C(=O)N[C@H](C=O)CCCNC(=N)N [leupeptin]
activation of calpain in muscle tissue and muscle breakdown: inhibited
